A word on the EC50: it is the concentration needed to bring the measured effect to its halfway point. The IC50 is the concentration that gives 50% inhibition.

In test [1] the test system is TC-71 (Ewing's sarcoma) cells. As to the kind of experiment: Cell proliferation assay, TC-71 (Alamar Blue). The test is classed as cell-based. The note with it: TC-71 cells, 72 h, read-out: TC71 EC50 range. As for the experimental part:
Cell Proliferation Assays
Published scientific data has described that interference with the Insulin-like Growth Factor-1 Receptor (IGF-1R) signaling pathway reduces the proliferation of TC-71 cells. Therefore TC-71 cells served as a positive control cell line for monitoring the activity of compounds against IGF-1R-mediated cell proliferation.
2000 TC-71 cells or 1000 HCT 116 cells were seeded per well in 180 μL IMDM+10% foetal calf serum (FCS)+penicillin/streptomycin into 96-well microtitre plates. The plates were placed in a cell culture incubator (37° C. in a humidified atmosphere of 95% […]/5 CO2) overnight. The following day, serial dilutions of compounds, prepared in duplicates, were transferred onto the cell layers (controls without compound). The cells were cultivated for a further 72 h in the cell culture incubator. 20 μL of Alamar Blue™ (Serotec Ltd, Düsseldorf, Germany) was added to each well and the plates incubated for 7 h in the cell culture incubator.
For orientation: Resazurin is reduced to fluorescent resorufin, in cell work by metabolically active cells.

Test [2] has as its target human IGF-1R (Homo sapiens (Human), UniProt P08069). Description: Cellular IGF-1R-phosphorylation assay (Fibro-hIGF-1R cells). The test is classed as cell-based. The note with it: IGF-1 stimulated (20 ng/mL, 30 min), 120 min compound incubation, read-out: pIGF-1R EC50 range. The method, then: Cellular IGF-1R-Phosphorylation Assay
The activity of substances against the phosphorylation of IGF-1R in activated cells is measured as follows: mouse fibroblast cells (transfected with human IGF-1R, Fibro-hIGF-1R) are cultivated in standard medium (DMEM, 10% foetal calf serum (FCS, Gibco), 1×MEM Non-Essential Amino Acids (NEAA, Gibco), 7.5% sodium hydrogen carbonate (Gibco) and 0.3 mg/mL Puromycin (Sigma)) in a humid incubator at 37° C. with 5 CO2/95% air.
10000 Fibro-hIGF-1R cells per well in 200 μL of standard medium are seeded into 96-well plates and cultivated overnight. […] 10 μL of substance solution (diluted in serum-reduced medium) is added thereto, and the cells are incubated for a further 120 min in the incubator. The phosphorylation of IGF-1R is activated for 30 min by the addition of IGF-1 (20 ng/mL in serum-reduced medium). All further incubations are carried out at RT. The supernatant is suction filtered from the wells, and the cells are fixed in 100 μL per well of 4% paraformaldehyde (diluted in PBS). The supernatant in the well is suction filtered and the cells are permeabilised for 5 min in 300 μL per well of 0.1% TritonX-100 (diluted in PBS). […] The cells are washed for 5 min with 300 μL per well of PBS with 0.1% TritonX-100 and then incubated for 60 min with 100 μL per well of blocking buffer (PBS with 0.1% TritonX-100 and 5 Bovine Serum Albumin (BSA)). […] The next day the plates are washed for 5 min with 300 μL PBS/0.1% TritonX-100 at RT and then incubated for 60 min with 50 μL per well of the second antibody buffer (1/500 diluted Goat Anti-Rabbit Immunoglobulin-Horseradish Peroxidase (HRP) (Dako) in blocking buffer) at RT. The plates are washed first for 5 min with 300 μL PBS/0.1% TritonX-100 and then for a further 5 min with 300 μL PBS at RT. The plates are developed for 10 min with 100 μL per well of a peroxidase solution (1:1 mixture of TMB Peroxidase Substrate and Peroxidase Solution B from Kirkegaard & Perry Laboratories, Inc.). The reactions are stopped with 100 μL per well of stop solution (1 M phosphoric acid). The absorbance in each well is measured at 450 nm with a SpectraMax Absorbance Reader. EC50 values for inhibiting the phosphorylation of the IGF-1R in activated cells are calculated using the programmes Fifty (Version 2) and GraphPad (Version 3.0).

Test [3] has as its target cytoplasmic kinase domain of human IGF-1R (IGF-1R-GST) (Homo sapiens (Human), UniProt P08069). Description: Insulin-like growth factor-1 receptor (IGF-1R) kinase assay (DELFIA). The test is classed as biochemical. The note with it: inhibition of IGF-1R-kinase activity, read-out: IGF1R IC50. As for the experimental part:
Insulin-Like Growth Factor-1 Receptor (IGF-1R)-Kinase Assay
The kinase activity is measured by DELFIA® assay (dissociation-enhanced lanthanide fluorescence immunoassay, Perkin Elmer). […] Enzyme activity is measured in the presence of substances and a control substance. Poly-glutamate-tyrosine peptide (pEY, Sigma Aldrich) and biotinylated pEY (bio-pEY) are used as reaction substrates.
After 40 min at RT the reactions are stopped with 50 μL of stop solution (250 mM EDTA, 20 mM HEPES pH 7.4). 90 μL from each reaction are transferred onto streptavidin-coated 96-well plates. After 120 min incubation at RT the plates are washed three times with 200 μL phosphate-buffered saline (PBS) per well. The plates are incubated for 60 min with 100 μL of europium-coupled antibody against phospho-tyrosine (diluted 1/2000 in Perkin Elmer DELFIA assay buffer) per well. The plates are washed three times with 200 μL per well of DELFIA washing buffer. 100 μL DELFIA Enhancement Solution (Perkin Elmer) is added to each well, and the plates are incubated for 10 min. The fluorescence signal is measured with a Wallac Victor TRF Reader. IC50 values for the inhibition of the IGF-1R-kinase activity are calculated using the programmes Fifty (Version 2) and GraphPad (Version 3.0).

Each structure is given as a SMILES string. Bounds are passed on as bounds.

Chain of cytoplasmic kinase domain of human IGF-1R (IGF-1R-GST) (P08069 964-1367 limits assumed): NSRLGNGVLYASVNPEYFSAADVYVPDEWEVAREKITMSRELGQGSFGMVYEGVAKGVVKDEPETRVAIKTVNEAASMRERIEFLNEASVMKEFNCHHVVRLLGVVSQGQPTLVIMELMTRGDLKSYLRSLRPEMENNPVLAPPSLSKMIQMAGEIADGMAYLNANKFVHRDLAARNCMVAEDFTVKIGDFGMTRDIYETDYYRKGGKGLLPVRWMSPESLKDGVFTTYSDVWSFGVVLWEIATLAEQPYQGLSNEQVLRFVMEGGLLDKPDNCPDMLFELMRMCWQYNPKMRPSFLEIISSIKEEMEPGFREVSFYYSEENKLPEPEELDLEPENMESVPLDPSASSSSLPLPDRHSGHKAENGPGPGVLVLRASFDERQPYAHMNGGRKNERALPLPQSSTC
Chain of human IGF-1R (P08069 31-1367): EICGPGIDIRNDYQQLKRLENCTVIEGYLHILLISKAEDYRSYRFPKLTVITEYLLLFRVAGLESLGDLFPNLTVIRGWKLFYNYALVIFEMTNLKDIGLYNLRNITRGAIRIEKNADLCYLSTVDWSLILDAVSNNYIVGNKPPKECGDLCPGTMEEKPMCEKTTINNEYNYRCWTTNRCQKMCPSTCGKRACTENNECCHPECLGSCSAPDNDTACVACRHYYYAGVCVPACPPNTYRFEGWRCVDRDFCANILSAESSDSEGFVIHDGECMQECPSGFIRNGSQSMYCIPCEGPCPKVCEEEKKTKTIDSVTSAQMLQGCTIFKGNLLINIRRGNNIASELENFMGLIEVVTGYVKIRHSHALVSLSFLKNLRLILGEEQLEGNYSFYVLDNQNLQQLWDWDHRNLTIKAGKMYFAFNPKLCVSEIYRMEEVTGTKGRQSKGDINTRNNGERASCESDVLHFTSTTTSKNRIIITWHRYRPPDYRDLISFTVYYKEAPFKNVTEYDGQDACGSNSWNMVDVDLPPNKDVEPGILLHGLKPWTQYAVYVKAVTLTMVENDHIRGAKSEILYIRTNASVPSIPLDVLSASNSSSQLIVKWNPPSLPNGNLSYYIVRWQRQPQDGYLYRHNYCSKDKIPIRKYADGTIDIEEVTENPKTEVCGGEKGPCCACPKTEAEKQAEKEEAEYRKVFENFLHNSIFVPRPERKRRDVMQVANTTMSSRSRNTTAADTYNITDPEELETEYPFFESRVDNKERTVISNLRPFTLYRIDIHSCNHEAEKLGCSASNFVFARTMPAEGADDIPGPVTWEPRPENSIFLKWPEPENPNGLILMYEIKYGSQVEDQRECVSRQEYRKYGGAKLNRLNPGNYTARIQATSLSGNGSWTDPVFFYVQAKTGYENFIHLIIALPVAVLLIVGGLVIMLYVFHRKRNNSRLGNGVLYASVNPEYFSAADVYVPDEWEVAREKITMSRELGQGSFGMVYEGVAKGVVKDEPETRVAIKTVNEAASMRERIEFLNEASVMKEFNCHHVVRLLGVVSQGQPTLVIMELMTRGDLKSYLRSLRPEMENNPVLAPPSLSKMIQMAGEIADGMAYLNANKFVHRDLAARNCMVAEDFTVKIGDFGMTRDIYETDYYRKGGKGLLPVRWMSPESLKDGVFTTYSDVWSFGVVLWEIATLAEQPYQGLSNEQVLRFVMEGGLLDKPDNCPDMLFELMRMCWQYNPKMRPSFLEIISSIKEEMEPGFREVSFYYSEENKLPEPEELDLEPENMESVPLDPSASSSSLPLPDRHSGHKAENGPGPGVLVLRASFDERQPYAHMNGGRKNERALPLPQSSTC

On to `CC(=O)N1CCC(n2cc(Nc3ncc4c(n3)-c3c(nn(C)c3Cc3cccc(-c5cnn(C)c5)c3)CC4)cn2)CC1` [I-013], for which the EC50 in test [1] was below 10 nM; in test [2], 10 to 100 nM. Moreover, the IC50 in test [3] worked out at 0.39 nM.

As to `CC(C)n1cc(-c2ccc(-c3c4c(nn3C)CCc3cnc(Nc5cnn(CCN(C)C)c5)nc3-4)cc2)cn1` [I-020], the EC50 in test [1] and in test [2] was below 10 nM each time. The IC50 in test [3] came out at 0.21 nM.

For `CC(=O)N1CCC(n2cc(Nc3ncc4c(n3)-c3c(nn(C)c3-c3ccc(-c5cnn(C(C)C)c5)cc3)CC4)cn2)CC1` [I-022], the values for the EC50 in test [1] and in test [2] were below 10 nM and 10 to 100 nM, respectively. Moreover, the IC50 in test [3] turned out to be 0.17 nM.

Regarding `CC(C)n1cc(-c2ccc(-c3c4c(nn3C)CCc3cnc(Nc5cnn(CCN6CCOCC6)c5)nc3-4)cc2)cn1` [I-023], the EC50 in test [1] and in test [2] was below 10 nM throughout. Moreover, the IC50 in test [3] is 0.42 nM.

Consider `COCCn1cc(Nc2ncc3c(n2)-c2c(nn(C)c2-c2ccc(-c4cnn(C(C)C)c4)cc2)CC3)cn1` [I-027], for which the EC50 in test [1] and in test [2] was below 10 nM in each case. Further, the IC50 in test [3] is 0.28 nM.

For the molecule `CC(=O)N1CCC(n2cc(Nc3ncc4c(n3)-c3c(nn(C)c3-c3ccc(-c5cnn(C)c5)cc3)CC4)cn2)CC1` [I-051], the EC50 in test [1] was below 10 nM; in test [2] it was 10 to 100 nM. Also, the IC50 in test [3] worked out at 0.21 nM.

With `CCn1ccc(Nc2ncc3c(n2)-c2c(nn(C)c2-c2ccc(-c4cnn(C5CCNCC5)c4)cc2)CC3)n1` [I-063], the EC50 is below 10 nM in test [1] and 10 to 100 nM in test [2]. Moreover, in test [3], the IC50 worked out at 0.16 nM.

As for `CCn1ccc(Nc2ncc3c(n2)-c2c(nn(C)c2-c2ccc(-c4cnn(C)c4)cc2Cl)CC3)n1` [I-064], the EC50 in test [1] and in test [2] was below 10 nM throughout. For the same molecule, in test [3], the IC50 was 0.31 nM.

As to `CCn1ccc(Nc2ncc3c(n2)-c2c(nn(C)c2-c2ccc(-c4c(C)noc4C)cc2)CC3)n1` [I-066], the concentration for a half-maximal effect (EC50) was in the range of 100 to 200 nM in test [1] and 100 to 600 nM in test [2]. Also, the IC50 in test [3] turned out to be 15 nM.

Regarding `CCn1ccc(Nc2ncc3c(n2)-c2c(nn(C)c2-c2ccc(-c4cnn(CCN5CCC(N(C)C)CC5)c4)cc2)CC3)n1` [I-119], the EC50 in test [1] and in test [2] was below 10 nM each time. The IC50 in test [3] is 0.09 nM.

Consider `COc1cc(C(=O)N2CCN(C)CC2)ccc1Nc1ncc2c(n1)-c1c(nn(C)c1-c1ccc(-c3cnn(C)c3)cc1)CC2` [I-129], for which the EC50 in test [1] and in test [2] was below 10 nM throughout. Moreover, the IC50 in test [3] was 0.16 nM.

`COc1cc(C(=O)NC(C)C)ccc1Nc1ncc2c(n1)-c1c(nn(C)c1-c1ccc(-c3cnn(C)c3)cc1)CC2` [I-132]: in test [2], the EC50 is below 10 nM. The IC50 in test [3] was 0.26 nM.

In the case of `CN(C)[C@H]1CCN(C(=O)Cn2ccc(Nc3ncc4c(n3)-c3c(nn(C)c3-c3ccc(-c5cnn(C)c5)cc3)CC4)n2)C1` [I-143], the EC50 in test [1] was below 10 nM; in test [2], 10 to 100 nM. For the same molecule, the IC50 in test [3] came out at 0.24 nM.

With `COc1cc(C(=O)N2CCOCC2)ccc1Nc1ncc2c(n1)-c1c(nn(C)c1-c1ccc(-c3cnn(C)c3)cc1)CC2` [I-156], the EC50 in test [1] and in test [2] was below 10 nM each time. In addition, in test [3], the IC50 worked out at 0.22 nM.

Take `COc1cc(C(=O)NC2CCOCC2)ccc1Nc1ncc2c(n1)-c1c(nn(C)c1-c1ccc(-c3cnn(C)c3)cc1)CC2` [I-160]: the EC50 in test [1] and in test [2] was below 10 nM in each case. Also, the IC50 in test [3] stood at 0.61 nM.

For the molecule `COc1cc(C(=O)N[C@@H]2CCN(C)C[C@H]2OC)ccc1Nc1ncc2c(n1)-c1c(nn(C)c1-c1ccc(-c3cnn(C)c3)cc1)CC2` [I-163], the EC50 in test [1] and in test [2] was below 10 nM throughout. Besides, the IC50 in test [3] was 0.23 nM.

Take `COc1cc(C(=O)NC2CN(C)C2)ccc1Nc1ncc2c(n1)-c1c(nn(C)c1-c1ccc(-c3cnn(C)c3)cc1)CC2` [I-164]: the results for the EC50 in test [1] and in test [2] were below 10 nM and 10 to 100 nM, respectively. Moreover, in test [3], the IC50 came to 0.19 nM.

Turning to `CCN1CCN(c2ccc(Nc3ncc4c(n3)-c3c(nn(C)c3-c3ccc(-c5cnn(C)c5)cc3)CC4)c(OC)c2)CC1` [I-170], the EC50 in test [1] and in test [2] was below 10 nM throughout. Moreover, the IC50 in test [3] worked out at 0.09 nM.

Turning to `COc1cc(N2CCN(C3CCOCC3)CC2)ccc1Nc1ncc2c(n1)-c1c(nn(C)c1-c1ccc(-c3cnn(C)c3)cc1)CC2` [I-171], the EC50 in test [1] and in test [2] was below 10 nM throughout. The IC50 in test [3] came out at 0.08 nM.

As for `COc1cc(N2CCN(C(C)C)CC2)ccc1Nc1ncc2c(n1)-c1c(nn(C)c1-c1ccc(-c3cnn(C)c3)cc1)CC2` [I-172], the EC50 in test [1] and in test [2] was below 10 nM in each case. For the same molecule, in test [3], the IC50 is 0.05 nM.

With `COCCN1CCC(n2cc(Nc3ncc4c(n3)-c3c(nn(C)c3-c3ccc(-c5cnn(C)c5)cc3)CC4)cn2)CC1` [I-175], the EC50 in test [1] was below 10 nM. The IC50 in test [3] was determined as 0.16 nM.

With `COc1cc(N2CCN(S(=O)(=O)N(C)C)CC2)ccc1Nc1ncc2c(n1)-c1c(nn(C)c1-c1ccc(-c3cnn(C)c3)cc1)CC2` [I-176], the EC50 in test [1] and in test [2] was below 10 nM in each case. In addition, in test [3], the IC50 is 2 nM.

As for `Cn1cc(-c2ccc(-c3c4c(nn3C)CCc3cnc(Nc5cnn(C6CCN(S(C)(=O)=O)CC6)c5)nc3-4)cc2)cn1` [I-177], in test [1], the EC50 was below 10 nM. Besides, the IC50 in test [3] stood at 0.23 nM.

As to `CN(C)S(=O)(=O)N1CCC(n2cc(Nc3ncc4c(n3)-c3c(nn(C)c3-c3ccc(-c5cnn(C)c5)cc3)CC4)cn2)CC1` [I-178], the EC50 in test [1] was below 10 nM. Further, in test [3], the IC50 turned out to be 0.34 nM.

Turning to `CC(=O)N1CCC(n2cc(Nc3ncc4c(n3)-c3c(nn(C)c3-c3ccc(-c5cnn(C)c5)nc3)CC4)cn2)CC1` [I-180], the EC50 in test [1] was 10 to 100 nM; in test [2] it was 100 to 600 nM. Also, the half-inhibitory concentration (IC50) in test [3] turned out to be 2 nM.
